These results are taken from patent publication US20100029615A1, “BENZIMIDAZOLE DERIVATIVES” (priority 2006, published 2010).

The structures appear in SMILES notation. Where a name gives a salt, the structure may show the parent alone.

T1 sequence (P56726 33-793): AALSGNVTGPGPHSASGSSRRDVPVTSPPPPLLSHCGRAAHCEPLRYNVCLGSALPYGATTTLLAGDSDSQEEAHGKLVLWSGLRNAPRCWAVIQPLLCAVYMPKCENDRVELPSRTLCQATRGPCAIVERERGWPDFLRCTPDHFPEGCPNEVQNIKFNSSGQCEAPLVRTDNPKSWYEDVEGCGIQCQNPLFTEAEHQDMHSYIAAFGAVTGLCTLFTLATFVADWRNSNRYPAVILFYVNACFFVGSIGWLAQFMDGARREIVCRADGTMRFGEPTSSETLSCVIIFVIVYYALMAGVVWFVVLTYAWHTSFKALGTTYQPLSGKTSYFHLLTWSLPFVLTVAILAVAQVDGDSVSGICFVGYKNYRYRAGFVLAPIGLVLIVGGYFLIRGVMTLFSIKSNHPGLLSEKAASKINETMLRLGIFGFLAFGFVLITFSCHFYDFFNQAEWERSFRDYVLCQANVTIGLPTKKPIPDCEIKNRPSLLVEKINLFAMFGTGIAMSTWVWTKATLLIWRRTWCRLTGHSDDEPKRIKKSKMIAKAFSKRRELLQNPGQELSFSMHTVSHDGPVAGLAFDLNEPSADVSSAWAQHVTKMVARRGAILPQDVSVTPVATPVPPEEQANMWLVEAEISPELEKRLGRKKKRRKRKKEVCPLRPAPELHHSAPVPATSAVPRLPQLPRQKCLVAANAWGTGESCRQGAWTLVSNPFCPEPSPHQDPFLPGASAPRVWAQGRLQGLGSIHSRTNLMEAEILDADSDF

The first test has as its target T1, SMO (Mus musculus, UniProt P56726).
T1 construct: endogenous in cells; host or cells: C3H10T1/2 (ATCC #CCL-226)
In words: Smoothened (SMO)/Sonic Hedgehog (SHh) Transient Transcriptional Activation Assay (Gli-luciferase reporter in C3H10T1/2 cells). The test is classed as cell-based, murine. To be noted: C3H 10T1/2, 2 uM test compound, SHh 250 ng/ml, 20 hrs, read-out: SMO % inhibition at 2 uM. The procedure, abridged: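 Luminescence (Dual-Glo) measured after 20 h co-exposure at 37 °C to 250 ng/ml human SHh and compound at 2 uM down to 2 nM final. Cells were C3H10T1/2 carrying a transfected murine 10× Gli response-element luciferase construct with pEGFP, starved 20 h in 0.5% calf serum beforehand.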
A general note: In a reporter assay the amount or activity of a reporter protein is the signal.
The inhibition is the relative decrease from the control value, in per cent. Turning to `CN(C(=O)c1ccc2c(c1)OCCO2)C1CCCC(c2nc3ccccc3n2C)C1` (stereo not drawn) [Example 14, N-Methyl-N-(3-(1-methyl-1H-benzo[d]imidazol-2-yl)cyclohexyl)-2,3-dihydrobenzo[b][1,4]dioxine-6-carboxamide], the inhibition at 2 µM turned out to be 95%.

Consider `CNC(=O)c1ccc2nc([C@H]3CCC[C@@H](NC(=O)c4cc(OC)cc(OC)c4)C3)[nH]c2c1` [Example 7, 2-(3-[3,5-dimethoxybenzamido)cyclohexyl)-N-methyl-1H-benzo[d]imidazole-5-carboxamide], for which the inhibition at 2 µM amounted to 70%.

Staying with this test, now noted: C3H 10T1/2, 2 μM test compound, SHh 250 ng/ml, 20 hrs, read-out: SMO CELL % INHIBITION @ 2 μM.
`COc1cc(OC)cc(C(=O)NC2CCCC(c3nc4ccc(C#N)cc4[nH]3)C2)c1` (stereo not drawn) [Example 68, N-[3-(6-cyano-1H-benzimidazol-2-yl)cyclohexyl]-3,5-dimethoxybenz-amide]: the inhibition at 2 µM is 89%.

For `COc1ccc2cc(C(=O)N[C@@H]3CCC[C@H](c4nc5ccccc5[nH]4)C3)[nH]c2c1` [Example 211, N-[(1R,3S)-3-(1H-benzimidazol-2-yl)cyclohexyl]-6-methoxy-1H-indole-2-carboxamide triflouroacetate], the inhibition at 2 µM came to 89%.

For the compound `O=C(Cn1ccc2ccccc2c1=O)NC1CCCC(c2nc3ccccc3[nH]2)C1` (stereo not drawn) [Example 154, N-[3-(1H-benzimidazol-2-yl)cyclohexyl]-2-(1-oxoisoquinolin-2(1H)-yl)acetamide triflouroacetate], the inhibition at 2 µM is 57%.

For `O=C(Nc1ccc(Cl)c(Cl)c1)N[C@@H]1CCC[C@H](c2nc3ccccc3[nH]2)C1` [Example 237], the inhibition at 2 µM came out at 111%.

Turning to `COc1ccc(C(=O)NC2CCCC(c3nc4ccccc4[nH]3)C2)cc1` (stereo not drawn) [Example 62, N-[3-(1H-benzimidazol-2-yl)cyclohexyl]-4-methoxybenz-amide HCl], the inhibition at 2 µM was 72%.

Turning to `O=C(CCc1nc2ccccc2[nH]1)NC1CCCC(c2nc3ccccc3[nH]2)C1` (stereo not drawn) [Example 148, 3-(1H-benzimidazol-2-yl)-N-[3-(1H-benzimidazol-2-yl)cyclohexyl]-propanamide triflouroacetate], the inhibition at 2 µM is 50%.

As to `O=C(NC1CCCC(c2nc3ccccc3[nH]2)C1)C1CCCCC1` (stereo not drawn) [Example 57, N-(3-(1H-benzo[d]imidazol-2-yl)cyclohexyl) cyclohexanecar-boxamide HCl], the inhibition at 2 µM is 48%.

In the case of `CC(C)(C)C(=O)NC1CCCC(c2nc3ccccc3[nH]2)C1` (stereo not drawn) [Example 55, N-[3-(1H-benzimidazol-2-yl)cyclohexyl]-2,2-dimethylpropan-amide HCl], the inhibition at 2 µM came to 57%.

As to `O=C(NC1CCCC(c2nc3ccccc3[nH]2)C1)c1cc(-c2ccccn2)n[nH]1` (stereo not drawn) [Example 153, N-[3-(1H-benzimidazol-2-yl)cyclohexyl]-3-pyridin-2-yl-1H-pyrazole-5-carboxamide triflouroacetate], the inhibition at 2 µM is 46%.

Take `Cc1nc2cc(C(=O)N[C@@H]3CCC[C@H](c4nc5ccccc5[nH]4)C3)ccc2[nH]1` [Example 197, N-[(1R,3S)-3-(1H-benzimidazol-2-yl)cyclohexyl]-2-methyl-1H-benzimidazole-5-carboxamide triflouroacetate]: the inhibition at 2 µM amounted to 50%.

On to `[N-]=[N+]=Nc1ccc(C(=O)NC23CCCC(c4nc5cc(C(F)(F)F)ccc5[nH]4)(C2)C3)cc1` [Example 273, 4-azido-N-{5-[5-(trifluoromethyl)-1H-benzimidazol-2-yl]bicyclo[3.1.1]hept-1-yl}benzamide], for which the inhibition at 2 µM is 93.2%.

On to `O=C(NC1CCCC(c2nc3ccccc3[nH]2)C1)c1ccc(-n2cnnn2)cc1` (stereo not drawn) [Example 163, N-[3-(1H-benzimidazol-2-yl)cyclohexyl]-4-(1H-tetrazol-1-yl)benzamide triflouroacetate], for which the inhibition at 2 µM stood at 95%.

Consider `COc1cc(OC)cc(C(=O)NC23CCCC(c4nc5ccccc5[nH]4)(C2)C3)c1` [Example 100, N-[5-(1H-benzimidazol-2-yl)bicyclo[3.1.1]hept-1-yl]-3,5-dimethoxybenz-amide], for which the inhibition at 2 µM was 81%.
